Assay results from the NIST ThermoML archive (doi:10.1007/s10765-008-0444-7).

How the values were obtained:
[1] = 101.3 kPa, Liquid; for viscosity: Capillary tube (Ostwald / Ubbelohde) method; for mass density: Pycnometric method
[2] = xn = mol fraction of the nth substance listed; settings: 101 kPa, Liquid; for viscosity: Capillary tube (Ostwald / Ubbelohde) method; for mass density: Pycnometric method

Brc1ccccc1 [bromobenzene]
[1]
Settings | mass density [kg/m3] | viscosity [mPa·s]
293 K | 1497 | 1.164
303 K | 1483 | 0.9844
313 K | 1467 | 0.8786

Brc1ccccc1 [bromobenzene] + CO
[2]
Settings | mass density, 293 K [kg/m3] | mass density, 303 K [kg/m3] | mass density, 313 K [kg/m3] | viscosity, 293 K [mPa·s] | viscosity, 303 K [mPa·s] | viscosity, 313 K [mPa·s]
x2 = 0 | 1497 | 1483 | 1467 | 1.164 | 0.9844 | 0.8786
x2 = 0.3528 | 1381 | 1367 | 1352 | 1.124 | 0.9306 | 0.8142
x2 = 0.5504 | 1280 | 1267 | 1253 | 1.008 | 0.8356 | 0.7399
x2 = 0.6775 | 1192 | 1179 | 1166 | 0.8873 | 0.742 | 0.6444
x2 = 0.7657 | 1114 | 1102 | 1089 | 0.8144 | 0.6962 | 0.6019
x2 = 0.8305 | 1045 | 1033 | 1021 | 0.7619 | 0.6467 | 0.5686
x2 = 0.8802 | 983 | 972.1 | 960.7 | 0.7235 | 0.617 | 0.5451
x2 = 0.9195 | 927.6 | 917.2 | 906.4 | 0.686 | 0.5891 | 0.513
x2 = 0.9552 | 871.4 | 861.5 | 851.1 | 0.657 | 0.5651 | 0.49
x2 = 0.9778 | 832.3 | 822.8 | 812.9 | 0.6312 | 0.5344 | 0.4773

Clc1ccccc1 [chlorobenzene]
[1]
Settings | mass density [kg/m3] | viscosity [mPa·s]
293 K | 1105.8 | 0.8432
303 K | 1095 | 0.721
313 K | 1082 | 0.6247

Clc1ccccc1 [chlorobenzene] + CO
[2]
Settings | mass density, 293 K [kg/m3] | mass density, 303 K [kg/m3] | mass density, 313 K [kg/m3] | viscosity, 293 K [mPa·s] | viscosity, 303 K [mPa·s] | viscosity, 313 K [mPa·s]
x2 = 0 | 1105.8 | 1095 | 1082 | 0.8432 | 0.721 | 0.6247
x2 = 0.2808 | 1066.5 | 1056 | 1044 | 0.8312 | 0.7121 | 0.6157
x2 = 0.4676 | 1029.2 | 1019 | 1007 | 0.8209 | 0.6924 | 0.6041
x2 = 0.601 | 993.9 | 983.7 | 972.5 | 0.8018 | 0.6821 | 0.5832
x2 = 0.7009 | 960.5 | 950.4 | 939.4 | 0.7699 | 0.6572 | 0.5569
x2 = 0.7783 | 928.8 | 918.9 | 908.1 | 0.7256 | 0.6093 | 0.5296
x2 = 0.8405 | 898.5 | 888.8 | 878.3 | 0.692 | 0.5828 | 0.51
x2 = 0.8913 | 869.7 | 860.1 | 849.9 | 0.6766 | 0.5672 | 0.4961
x2 = 0.9335 | 842.3 | 832.9 | 822.9 | 0.6424 | 0.5401 | 0.4701
x2 = 0.9693 | 816.2 | 806.8 | 797.1 | 0.6194 | 0.528 | 0.4591

CO [methanol]
[1]
Settings | mass density [kg/m3] | viscosity [mPa·s]
293 K | 791.1 | 0.591
303 K | 781.9 | 0.518
313 K | 772.4 | 0.45

CO [methanol] + Brc1ccccc1
[2], x1 = 1
Settings | mass density [kg/m3] | viscosity [mPa·s]
293 K | 791.1 | 0.591
303 K | 781.9 | 0.518
313 K | 772.4 | 0.45

CO [methanol] + Clc1ccccc1
[2], x1 = 1
Settings | mass density [kg/m3] | viscosity [mPa·s]
293 K | 791.1 | 0.591
303 K | 781.9 | 0.518
313 K | 772.4 | 0.45
